In paper PMC7781520 (Channels, 2020):

Molecular target: Kv1.3 voltage-gated K+ channel (Homo sapiens, UniProt P22001)
Type: cell-based

Kv1.3 voltage-gated K+ channel, sequence (P22001 whole entry): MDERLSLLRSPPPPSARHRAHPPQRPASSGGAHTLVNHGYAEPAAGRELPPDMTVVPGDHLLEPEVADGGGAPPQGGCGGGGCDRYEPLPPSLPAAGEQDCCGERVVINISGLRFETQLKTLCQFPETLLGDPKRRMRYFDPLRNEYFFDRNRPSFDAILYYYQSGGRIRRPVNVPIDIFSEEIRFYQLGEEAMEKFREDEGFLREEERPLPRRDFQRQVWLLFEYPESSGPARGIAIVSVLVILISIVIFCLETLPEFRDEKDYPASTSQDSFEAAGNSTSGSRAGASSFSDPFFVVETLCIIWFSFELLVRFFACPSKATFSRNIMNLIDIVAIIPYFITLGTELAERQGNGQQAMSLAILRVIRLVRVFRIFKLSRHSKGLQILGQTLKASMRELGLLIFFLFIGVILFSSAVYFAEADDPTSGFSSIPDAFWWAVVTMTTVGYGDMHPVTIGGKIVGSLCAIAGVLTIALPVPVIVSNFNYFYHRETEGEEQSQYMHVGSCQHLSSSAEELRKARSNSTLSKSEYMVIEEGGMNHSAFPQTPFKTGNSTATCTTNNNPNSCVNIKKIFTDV

Structure (SMILES): CC[N+](CC)(CC)CC [TEA+]
- IC50: 10.3 ± 0.71 mM
